From patent US20110045100A1, “Antimalarial Quinolines and Methods of Use Thereof” (GEORGETOWN UNIVERSITY, priority 2008, published 2011)

Assays:
[1] = test system: Dd2 (chloroquine resistant strain of P. falciparum); assay: SYBR Green I antiplasmodial assay, strain Dd2; format: cell-based, Plasmodium falciparum; conditions: strain Dd2
From the text: Bennett T. N.; Paguio, M.; Gligorijevic, B.; Seudieu, C.; Kosar, A. D.; Davidson, E.; Roepe, P. D. Novel, rapid, and inexpensive cell-based quantification of antimalarial drug efficacy. Antimicrob. Agents Chemother. 2004, 48, 1807-1810; Smilkstein, M.; Sriwilaijaroen, N.; Kelly, J. X.; Wilairat, P.; Riscoe, M. Simple and inexpensive fluorescence-based technique for high-throughput antimalarial drug screening. Antimicrob. Agents Chemother. 2004, 48, 1803-1806; and Johnson, J. D.; Dennull, R. A.; Gerena, L.; Lopez-Sanchez, M.; Roncal, N. E.; Waters, N.C. Assessment and continued validation of the malaria SYBR green I-based fluorescence assay for use in malaria drug screening. Antimicrob. Agents Chemother. 2007, 51, 1926-1933. […] Drake, N. L.; Creech, H. J.; Garman, J. A.; Haywood, S. T.; Peck, R. M.; van Hook, J. O.; Walton, E. Synthetic antimalrials. The preparation of certain 4-aminoquinolines. J. Am. Chem. Soc. […] Trans. R. Soc. Trop. Med. Hyg. […] J. Parasitol. 1983, 69, 97-105. The selectivity index provides a quantitative measure of the antimalarial activity against CQR strains relative to that against sensitive strains and thus indicates promising drug discovery leads. […] This can be combined with the introduction of a third basic amino function which should further favor accumulation of the drug within the acidic food vacuole of the parasite.
The antiplasmodial activity of these compounds was measured versus a CQS (HB3) and a CQR (Dd2) strain using a standardized, inexpensive assay based on SYBR Green I intercalation. Bennett T. N.; Paguio, M.; Gligorijevic, B.; Seudieu, C.; Kosar, A. D.; Davidson, E.; Roepe, P. D. Antimicrob. Agents Chemother. 2004, 48, 1807-1810; Smilkstein, M.; Sriwilaijaroen, N.; Kelly, J. X.; Wilairat, P.; Riscoe, M. Antimicrob. Agents Chemother. 2004, 48, 1803-1806; and Johnson, J. D.; Dennull, R. A.; Gerena, L.; Lopez-Sanchez, M.; Roncal, N. E.; Waters, N.C. Antimicrob. Agents Chemother. 2007, 51, 1926-1933. […] De, D.; Krogstad, F. M.; Cogswell, F. B.; Krogstad, D. J. Am. J. Trop. Med. Hyg. 1996, 55, 579-583. […] The basic tertiary amino function in the side chain is commonly believed to be crucial for the accumulation of the drug within the acidic food DV.
Drug activities were assessed and IC50 were quantified essentially as described previously. Delarue, S.; Girault, S.; Maes, L.; Debreu-Fontaine, M. A.; Labaeid, M.; Grellier, P.; Sergheraert, C. Synthesis and in vitro and in vivo antimalarial activity of new 4-anilinoquinolines. J. Med. Chem. 2001, 44, 2827-2833; and O'Neill, P. M.; Willock, D. J.; Hawley, S. R.; Bray, P. G.; Storr, R. C.; Ward, S. A.; Park, B. K. Synthesis, antimalarial activity, and molecular modeling of tebuquine analogues. J. Med. Chem. 1997, 40, 437-448. The aminoquinolines were diluted using complete media under sterile conditions and plated in a 96 well plate format. Sorbitol synchronized cultures were utilized with >95% of the parasites at the ring stage. Cultures were diluted to give a working stock of 0.5% parasitemia and 2% hematocrit (final hematocrit 1% & 0.5% Parasitemia). The plates were incubated for 72 h at 37° C. After 72 h, 50 μL of 10×SYBR green I dye was added to each well, and the plate was incubated for 1 h at 37° C. Fluorescence was measured at 530 nm (490 nm excitation) using a spectra geminiEM plate reader. Data analysis was performed using sigma plot 9.0 software after downloading data in Excel format.

μ-oxo dimeric heme = assay: Heme affinity measurement, μ-oxo dimeric heme; format: binding; conditions: aqueous solution
Method: 1.5 mL cuvettes containing freshly prepared samples of 4.8 μM heme were titrated with increasing concentrations (0-50 μM) of drug. Following each addition, the sample was mixed and heme absorbance then recorded at 402 nm. Control experiments were performed by titrating 4.8 μM heme with similar volumes of solvent and no drug present. To measure affinity for μ-oxo dimeric heme, the procedure was similar except hemin was first converted to dimeric form in mild alkaline solution, followed by titration to pH 7.5 using Hepes buffer. The absorbance peak analysis was done using Microsoft excel and Ka were extracted from the ΔAbs402 plots via Scatchard analysis using Microsoft Excel and Sigma plot 9.0.1 software.

hemozoin (Hz) formation = assay: Quantification of in vitro Hz formation inhibition; format: biochemical
Method: A stock solution of 5 mM hemin (Fluka) in 0.1M NaOH was prepared and stored as small aliquots at -20° C. Fresh aliquots were thawed daily to room temperature before use. Lecithin stock solutions were prepared by dissolving in distilled water to 10 mg/ml and similarly stored. 0.5 M propionate was used to buffer experiments in the pH range 5.2-5.6. The assay mixture (1 mL volumes) contained: 200 μL lecithin solution ([…] final) 20 μL hematin (100 μM final concentration) 20 μ[…] propionate buffer (X) μL drug (dependant on the concentration required 0-1000 μM). The addition sequence involved first adding the lecithin followed by heme, HCl, propionate buffer and finally the drug. Each sample was prepared in triplicate. Following addition of the reagents the samples were incubated at 37° C. with constant shaking for 18 h. After 18 h the assay was stopped by spinning the samples at 13,200 rpm for 10 minutes followed by carefully aspirating off the supernatant. The pellet was then resuspended in 50 mM bicarbonate buffer pH 9.0 (1 mL) and gently shaken at room temperature for 30 minutes to dissolve uncrystallized heme. The samples were then centrifuged as above and the supernatant removed. […] The samples were then dissolved in 0.1M NaOH to solubilize β-hematin to free heme and β-hematin formed was then quantified via heme absorbance at 402 nm. Calibration curves were prepared by titrating increasing amounts of heme in the same solvent vs. absorbance at 402 nm.

## CCN(CC)CCCCOc1ccnc2cc(Cl)ccc12 [compound 93, O-(7-Chloro-4-quinolyl)-4-(N,N-diethylamino)butanol]
[1]
  fold lower IC50 relative to 98: 4 fold
μ-oxo dimeric heme
  affinity (association constant Ka) vs. μ-oxo dimer: quite similar
Hemozoin (Hz) formation
  fold higher IC50 for Hz inhibition relative to 98: roughly 5 fold
Hemozoin (Hz) formation; FIG. 26
  ability to inhibit Hz formation vs. that measured for CQ and 8: significantly lower
